Values of other authors as cited in patent publication US20050244465A1, “Drug delivery systems and methods for treatment of an eye” (Allergan, Inc., priority 2004, published 2005).

Settings: efficacy in vivo; 25 mg hydrocortisone equivalent to 1 mg dexamethasone

Compound: C[C@]12CCC(=O)C=C1CC[C@@H]1[C@@H]2[C@@H](O)C[C@@]2(C)[C@H]1CC[C@]2(O)C(=O)CO [hydrocortisone]
- potency relative to dexamethasone: approximately twentyfivefold less potent than dexamethasone
